The conditions of data set [1]: cited from earlier work.
Data set [2] is described as follows: Stability of metalloporphyrins to oxidative degradation (bleaching), spectrophotometric. The note with it: for remaining fraction of metalloporphyrin: after 6 hours, in the presence of cyclophosphamide, pH 7.4, 10 μM porphyrin; for remaining fraction of metalloporphyrin / stability to oxidative degradation / bleaching (in words): aerobic; for stability to oxidative degradation / bleaching (in words): pH 7.4, ascorbic acid.

Data set [3] in a line: Electrochemistry: metal-centered redox potential (voltammetry). It counts as physicochemical. The settings on record: for E1/2 (H2O)M^IIIP/(H2O)M^IIP: 0.1M NaCl and 0.01 M HCl, errors ±3 mV. The protocol: The electrochemistry was done as previously described on CH Instruments 600 Voltammetric Analyzer. The metal-centered redox potentials of aquametalloporhyrins were measured in 0.1 M NaCl and 0.01 M HCl. […] Thus, their voltammograms were obtained in 0.1 M NaCl, 0.1 M 1-methylimidazole, 0.05 M phosphate buffer, pH 7.8. Scan rates were 0.1 V/s. The potentials were standardized against MnTE-2-PyP^5+ and are given in Table 1, in mV versus normal hydrogen electrode, NHE [42].

Data set [4] in a line: Precipitation of anionic porphyrins at acidic pH. It is filed as physicochemical. The settings on record: pH 5.5, ~50% of carboxylate groups protonated.
The conditions of data set [5]: cited from earlier work. The source holds these as a separate data set.
The conditions of data set [6]: when carboxylates are protonated; cited from earlier work.
The conditions of data set [7]: in vivo, iv; cited from earlier work.
The conditions of data set [8]: pH 7.4; for remaining fraction of metalloporphyrin: buffer, 6 h.
Where [9] appears, read: footnote b: ref 42, pH 7.8, 0.05 M phosphate buffer, 0.1M NaCl, 0.5 mM porphyrin.
The mark [10] stands for this setting: 0.1 M NaCl, 0.1 M 1-methylimidazole, 0.05 M phosphate buffer, pH 7.8, scan rate 0.1 V/s.
The mark [11] stands for this setting: footnote a: estimated from existing potentials of difluoro- and dichloro analogues [42] and those obtained herein.

Read-outs that look alike come from different tables or passages of the source.

The source of these data is US8759324B2 (priority 2006, dated 2014).

Turning to `C[n+]1ccccc1-c1c2nc(c(-c3cccc[n+]3C)c3ccc([n-]3)c(-c3cccc[n+]3C)c3nc(c(-c4cccc[n+]4C)c4ccc1[n-]4)C=C3)C=C2.[Mn+3]` [MnTM-2-PyP^5+, Mn(III) tetrakis(N-methylpyridinium-2-yl)porphyrin], in data set [1] (setting [9]), the “E1/2 (OH)M^IIIP/(H2O)M^IIP” value is listed as “+128^b mV vs NHE”. Besides, the “remaining fraction of metalloporphyrin” value in [2] (2 mM ascorbic acid) was 91%.
As for `C[n+]1ccccc1-c1c2nc(c(-c3cccc[n+]3C)c3ccc([n-]3)c(-c3cccc[n+]3C)c3nc(c(-c4cccc[n+]4C)c4ccc1[n-]4)C=C3)C=C2.[Fe+3]` [FeTM-2-PyP^5+, Fe(III) tetrakis(N-methylpyridinium-2-yl)porphyrin], in data set [1] (setting [9]), the “E1/2 (1-MeIm)2M^IIIP/(1-MeIm)2M^IIP” value is on record as “+432^b mV vs NHE”, the “E1/2 (H2O)M^IIIP/(H2O)M^IIP” value is “+355^b mV vs NHE” and the “E1/2 (OH)M^IIIP/(H2O)M^IIP” value was “+212^b mV vs NHE”. The “change of absorbance at 417.5 nm (porphyrin degradation)” value in [2] (9 μM porphyrin, 2 mM ascorbic acid, +/−50 μM H2O2, +/−50 mM mannitol, PBS pH 7.4, 25° C., data not shown) is recorded as “decreased slowly”. In addition, in data set [2] (2 mM ascorbic acid), the “remaining fraction of metalloporphyrin” value was 41%.
For the compound `C=CC1=C(C)c2cc3[n-]c(cc4[n-]c(cc5nc(cc1n2)C(C)=C5C=C)c(C)c4CCC(=O)O)c(CCC(=O)O)c3C.[Cl-].[Fe+3]` [FePP-IX^−, Fe(III) protoporphyrin IX], the “E1/2 (1-MeIm)2M^IIIP/(1-MeIm)2M^IIP” value in [3] (setting [10]) is 112 mV vs NHE. Besides, in data set [4], the “precipitation at pH 5.5” value is recorded as “precipitate out of the solutions”. The “pKa of carboxylate groups” value in data set [5] is given as approximately 5. In addition, in data set [6], the “precipitation under acidic conditions” value was “precipitate under acidic conditions”. The “remaining fraction of metalloporphyrin” value in data set [2] (2 mM ascorbic acid) turned out to be 71%. For the same compound, in data set [2], the “stability to oxidative degradation / bleaching (in words)” value is given as “very resistant to bleaching”.
For the compound `O=P1(N(CCCl)CCCl)NCCCO1` (stereo not drawn) [CP, cyclophosphamide], in data set [7], the “CP hydroxylated to 4-OHCP in plasma” value is listed as “around 2.4%” and the “peak CP levels in plasma” value was 27.58 μg/mL μM.
For the compound “Fe(III) meso tetrakis(2,6-dichloro-3-sulfonatophenyl)porphyrin [FeT(2,6-Cl2-3-SO3P)P^3−]”, in data set [3] (scan rate 0.1 V/s), the “E1/2 (H2O)M^IIIP/(H2O)M^IIP” value was “+144^ mV vs NHE”. In data set [8], the “remaining fraction of metalloporphyrin” value is recorded as 23% and the “stability to oxidative degradation / bleaching (in words)” value was “least stable”. For the same compound, in data set [1] (setting [9]), the “E1/2 (1-MeIm)2M^IIIP/(1-MeIm)2M^IIP” value is on record as “+134^b mV vs NHE” and the “E1/2 (OH)M^IIIP/(H2O)M^IIP” value is “+94^b mV vs NHE”.
“Fe(III) meso tetrakis(2,6-difluoro-3-sulfonatophenyl)porphyrin [FeT(2,6-F2-3-SO3P)P^3−]”: in data set [3] (scan rate 0.1 V/s), the “E1/2 (H2O)M^IIIP/(H2O)M^IIP” value is “+124^ mV vs NHE”. In addition, in data set [3] (setting [11]), the “E1/2 (1-MeIm)2M^IIIP/(1-MeIm)2M^IIP” value was “+114^a mV vs NHE” and the “E1/2 (OH)M^IIIP/(H2O)M^IIP” value was “+74^a mV vs NHE”. For the setting “pH 5.5”, the 4-OHCP produced amounted to 46.11 µM and the “cyclophosphamide hydroxylated relative to 10 μM porphyrin” value is on record as approximately 5 fold. Further, the 4-OHCP formed (pH 7.4) was 15.62 µM. Moreover, in data set [8], the “remaining fraction of metalloporphyrin” value turned out to be 19% and the “stability to oxidative degradation / bleaching (in words)” value is “least stable”.
`C[n+]1cccc(-c2c3nc(c(-c4ccc[n+](C)c4)c4ccc([n-]4)c(-c4ccc[n+](C)c4)c4nc(c(-c5ccc[n+](C)c5)c5ccc2[n-]5)C=C4)C=C3)c1.[Mn+3]` [MnTM-3-PyP^5+, Mn(III) tetrakis(N-methylpyridinium-3-yl)porphyrin]: the “E1/2 (OH)M^IIIP/(H2O)M^IIP” value in [1] (footnote c: ref 62, pH 11 where only 33% of (OH)MnTM-3-PyP^4+ exists) is recorded as “+42^c mV vs NHE”. Further, the “remaining fraction of metalloporphyrin” value in data set [2] (2 mM ascorbic acid) came out at 94%.
Take “Fe(III) meso tetrakis(4-carboxylatophenyl)porphyrin [FeTBAP^3−]”: the “E1/2 (1-MeIm)2M^IIIP/(1-MeIm)2M^IIP” value in [3] (setting [10]) is listed as “+22 ^ mV vs NHE”. In data set [4], the “precipitation at pH 5.5” value is “precipitate out of the solutions”. Besides, the “pKa of carboxylate groups” value in data set [5] is given as approximately 5. The “precipitation under acidic conditions” value in data set [6] is recorded as “precipitate under acidic conditions”. Moreover, in data set [2] (2 mM ascorbic acid), the “remaining fraction of metalloporphyrin” value was 24%. Further, the “stability to oxidative degradation / bleaching (in words)” value in data set [2] is “more prone to destruction”.
